Test results as given in patent publication US12439914B2, “Bactrocera oleae attractant composition and uses thereof” (CEARITIS, priority 2020, dated 2025).

Test system: Bactrocera oleae
Experiment: Attractiveness in glass Y-tube olfactometer (behavioural response of the olive fruit fly)
Type: in vivo
Details: 10 ng on filter paper vs dichloromethane control; individual female flies 8 to 30 days old; Y-tube choice
Description: The attractiveness of the active substances of the attractant composition according to the invention was evaluated using a glass Y-tube olfactometer (internal diameter 4.5 cm; length of the arm 22 cm; length of the main stem 24.5 cm). The assembly was placed in a lit room at 22° C. Screws held the Y-tube in an inclined position (angle of […] between the Y-tube and the horizontal plane). The Y-tube was placed in the centre of an artificially lit box (60×60×60 cm), covered with sheets on the outside in order to avoid external stimuli. The tubes at the end of the Y were connected to two glass adaptors, to which 30 ml glass flasks were attached, each containing a 1 cm^2 piece of filter paper. […]
Individual female flies—from 8 to 30 days old—were released one by one into the first cm of the base tube of the olfactometer using a manual aspirator. […] The air suction tube was connected to the glass Y-tube and the time until the flies reached the end of one of the arms of the Y was recorded. […]
In order to evaluate the attractiveness of one molecule vis-à-vis Bactrocera oleae, the data collected were analyzed with a khi2 statistical test on Excel and R. The p value, obtained in this test, indicates the probability of obtaining the same value if the null hypothesis was true. […]

Row | SMILES | Behavioural response obtained using the substance tested (expressed in %) [%]
1 | C=C1CC/C=C(\C)CC[C@@H]2[C@@H]1CC2(C)C [Beta-caryophyllene, beta-caryophyllene] | 70.00
2 | CCCCCCCCCC=O [Decanal, decanal] | 68.00
